Experimental data: patent US7332601B2, “CCI-779 derivatives and methods of making same” (Wyeth, priority 2004, dated 2008)

Assays:
[1] = system: human glioblastoma cell line; settings: human glioblastoma cell line in vitro; cited from earlier work
CYP450 2E1 = CYP450 2E1 (Homo sapiens, UniProt P05181); assay: Generation of CCI-779 derivatives by CYP450 isozyme incubation; assay type: in vitro ADME
CYP450 2C9 = CYP450 2C9 (Homo sapiens, UniProt P11712); assay: as above; assay type: in vitro ADME
Chain of CYP450 2C9 (P11712 whole entry): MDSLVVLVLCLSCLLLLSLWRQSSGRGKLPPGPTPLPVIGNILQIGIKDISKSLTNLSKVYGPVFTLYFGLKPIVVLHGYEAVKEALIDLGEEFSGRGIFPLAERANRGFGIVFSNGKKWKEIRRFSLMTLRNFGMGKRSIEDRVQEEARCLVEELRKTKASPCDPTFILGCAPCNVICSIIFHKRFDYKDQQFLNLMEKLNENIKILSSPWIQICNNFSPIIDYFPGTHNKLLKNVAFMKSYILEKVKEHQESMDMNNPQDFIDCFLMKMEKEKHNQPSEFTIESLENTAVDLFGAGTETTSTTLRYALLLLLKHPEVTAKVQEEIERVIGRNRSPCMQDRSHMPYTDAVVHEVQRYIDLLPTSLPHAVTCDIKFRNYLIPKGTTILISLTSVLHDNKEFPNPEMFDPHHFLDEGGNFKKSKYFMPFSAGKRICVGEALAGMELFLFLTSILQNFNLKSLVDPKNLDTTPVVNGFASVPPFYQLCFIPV

[2] = system: human tumor xenografts of diverse histological types; settings: nude mice, cited from earlier work
CYP450 2C19 = CYP450 2C19 (Homo sapiens, UniProt P33261); assay: Generation of CCI-779 derivatives by CYP450 isozyme incubation; assay type: in vitro ADME
Chain of CYP450 2C19 (P33261 whole entry): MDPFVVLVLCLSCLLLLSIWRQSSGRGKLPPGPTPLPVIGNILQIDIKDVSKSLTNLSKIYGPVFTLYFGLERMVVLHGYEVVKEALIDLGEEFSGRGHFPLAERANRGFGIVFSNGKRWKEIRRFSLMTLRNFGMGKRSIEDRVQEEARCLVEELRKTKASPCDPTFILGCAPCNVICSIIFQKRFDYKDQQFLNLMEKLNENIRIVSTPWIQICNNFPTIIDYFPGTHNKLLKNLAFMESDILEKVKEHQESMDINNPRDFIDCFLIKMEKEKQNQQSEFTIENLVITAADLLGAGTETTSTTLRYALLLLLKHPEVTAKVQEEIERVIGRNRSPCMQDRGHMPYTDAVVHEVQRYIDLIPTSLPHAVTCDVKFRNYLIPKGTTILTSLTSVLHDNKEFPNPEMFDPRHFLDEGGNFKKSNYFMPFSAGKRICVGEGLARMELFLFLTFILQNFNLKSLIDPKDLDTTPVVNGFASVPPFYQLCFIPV

human pancreatic tumors = settings: several human pancreatic tumors in nude mice; cited from earlier work
orthotopic glioma model = settings: nude mice; cited from earlier work
CYP450 2A6 = target: T1, CYP450 2A6 (Homo sapiens, UniProt P11509); assay: Generation of CCI-779 derivatives by CYP450 isozyme incubation; assay type: in vitro ADME
T1 sequence (P11509 1-494): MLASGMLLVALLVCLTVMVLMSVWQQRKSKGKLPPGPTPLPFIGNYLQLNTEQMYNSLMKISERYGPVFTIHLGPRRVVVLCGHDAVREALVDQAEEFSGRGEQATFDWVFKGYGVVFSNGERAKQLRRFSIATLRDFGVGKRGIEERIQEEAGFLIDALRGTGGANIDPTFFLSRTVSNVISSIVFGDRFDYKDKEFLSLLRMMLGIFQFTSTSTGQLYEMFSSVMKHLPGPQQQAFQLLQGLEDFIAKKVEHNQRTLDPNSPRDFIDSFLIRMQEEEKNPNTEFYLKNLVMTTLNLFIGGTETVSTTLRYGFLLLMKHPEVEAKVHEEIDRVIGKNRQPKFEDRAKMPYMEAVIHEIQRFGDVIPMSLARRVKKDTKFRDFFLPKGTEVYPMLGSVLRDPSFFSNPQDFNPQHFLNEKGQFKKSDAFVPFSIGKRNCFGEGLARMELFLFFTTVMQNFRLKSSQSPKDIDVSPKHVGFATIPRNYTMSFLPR

CYP450 2C8 = target: T2, CYP450 2C8 (Homo sapiens, UniProt P10632); assay: as above; assay type: in vitro ADME
T2 sequence (P10632 1-490): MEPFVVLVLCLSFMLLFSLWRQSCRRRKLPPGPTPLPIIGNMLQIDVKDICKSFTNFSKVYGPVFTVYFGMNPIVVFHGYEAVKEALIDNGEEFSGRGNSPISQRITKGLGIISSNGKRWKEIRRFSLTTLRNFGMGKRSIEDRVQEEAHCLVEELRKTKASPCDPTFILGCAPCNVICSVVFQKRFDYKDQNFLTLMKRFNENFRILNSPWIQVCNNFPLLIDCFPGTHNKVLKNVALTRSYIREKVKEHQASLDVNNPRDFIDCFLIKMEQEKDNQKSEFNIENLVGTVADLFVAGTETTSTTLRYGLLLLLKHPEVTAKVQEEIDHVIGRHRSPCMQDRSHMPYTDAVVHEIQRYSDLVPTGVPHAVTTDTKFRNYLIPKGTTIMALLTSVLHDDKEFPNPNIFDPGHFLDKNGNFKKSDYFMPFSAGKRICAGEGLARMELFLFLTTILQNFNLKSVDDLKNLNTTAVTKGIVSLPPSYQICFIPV

breast cancer lines = settings: one of two breast cancer lines studied in vivo; cited from earlier work
[3] = system: histologically diverse tumor cells; settings: cited from earlier work
CYP3A4 = target: T3, CYP3A4 (Homo sapiens, UniProt P08684); assay: Generation of CCI-779 derivatives by CYP450 isozyme incubation; assay type: in vitro ADME
T3 construct: host or cells: E. coli (membrane preparation)
T3 sequence (P08684 whole entry): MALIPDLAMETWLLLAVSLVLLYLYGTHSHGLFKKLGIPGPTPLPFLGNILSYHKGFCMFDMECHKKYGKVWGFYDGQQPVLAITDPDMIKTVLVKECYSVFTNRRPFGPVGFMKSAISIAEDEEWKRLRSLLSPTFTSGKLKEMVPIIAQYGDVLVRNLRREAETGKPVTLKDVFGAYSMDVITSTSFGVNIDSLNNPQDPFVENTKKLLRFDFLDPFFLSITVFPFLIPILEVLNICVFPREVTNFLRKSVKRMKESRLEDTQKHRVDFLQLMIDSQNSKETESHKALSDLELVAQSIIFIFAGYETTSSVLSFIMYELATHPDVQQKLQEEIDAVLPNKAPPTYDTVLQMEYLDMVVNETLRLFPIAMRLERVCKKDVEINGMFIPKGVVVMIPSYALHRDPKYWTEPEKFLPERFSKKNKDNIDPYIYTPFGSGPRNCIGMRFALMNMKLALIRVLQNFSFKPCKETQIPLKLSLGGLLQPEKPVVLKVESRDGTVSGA
Procedure: The invention provides a method of generating specific derivatives of CCI-779 by incubating CCI-779 with membranes of recombinant E. coli cells expressing human cytochrome P450-3A4 isozymes.
In order to generate the specific hydroxylation derivatives of the invention, CCI-779 and CYP3A4 may be incubated in the presence of a reducing agent, such as NADH or NADPH. Suitably, CCI-779 and the enzyme can be present in a ratio of 300:1 to 500:1, and desirably about 330:1 CCI-779 to enzyme. In the examples below, these components are mixed to a final concentration of 0.1 mM CCI-779, 300 nM 3A4 enzyme, and 2 mM NADPH regenerate system. However, other concentrations can be readily used.
To a 5L reactor containing CCI-779 514 mg (0.5 mmol), MgCl2 (0.4 M×100 ml), NADPH generating system (NADP sodium salt: 75 mg×100 mL, D-glucose-6-phospate: 60 mg/mL×100 mL; glucose-6-phosphate dehydrogenase: 25 units/mL×100 mL), and E. coli-expressed CYP-3A4 membrane (1500 nmol) was added potassium phosphate buffer solution to 5L. The mixture solution was incubated at 37° C. under oxygen atmosphere (sparging O2 at 0.3 L/min) with agitation of 125 rpm for one hour. After one-hour reaction, the reaction solution was cooled down to 25° C. on an ice bath and extracted with an equal volume of ethyl acetate twice. […]

Chain of CYP450 2E1 (P05181 whole entry): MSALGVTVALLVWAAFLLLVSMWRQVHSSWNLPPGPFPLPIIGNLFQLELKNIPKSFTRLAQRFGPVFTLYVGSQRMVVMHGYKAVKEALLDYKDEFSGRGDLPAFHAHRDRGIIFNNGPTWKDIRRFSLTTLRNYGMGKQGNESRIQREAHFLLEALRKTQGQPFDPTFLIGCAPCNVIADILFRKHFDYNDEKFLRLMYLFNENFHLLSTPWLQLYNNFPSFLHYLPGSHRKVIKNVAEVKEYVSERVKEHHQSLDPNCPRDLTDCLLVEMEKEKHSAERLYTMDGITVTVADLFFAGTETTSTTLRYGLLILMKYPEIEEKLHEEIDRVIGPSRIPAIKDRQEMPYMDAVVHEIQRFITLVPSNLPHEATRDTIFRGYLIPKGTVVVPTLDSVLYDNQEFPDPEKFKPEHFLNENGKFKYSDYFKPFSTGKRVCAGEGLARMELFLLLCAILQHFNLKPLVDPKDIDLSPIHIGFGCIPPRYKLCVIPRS

CO[C@H]1CC2CC[C@@H](C)[C@@](O)(O2)C(=O)C(=O)N2CCCC[C@H]2C(=O)O[C@H]([C@H](C)C[C@@H]2CC[C@@H](OC(=O)C(C)(CO)CO)[C@H](OC)C2)CC(=O)[C@H](C)/C=C(\C)[C@@H](O)[C@@H](OC)C(=O)[C@H](C)C[C@H](C)/C=C/C=C/C=C/1C [CCI-779, Rapamycin 42-ester with 2,2-bis(hydroxymethyl)propionic acid]
growth factor (platelet-derived)-induced stimulation [1]: markedly suppressed
generation of CCI-779 derivatives by the enzyme (CYP450 2E1): not able to generate these derivatives
generation of CCI-779 derivatives by the enzyme (CYP450 2C9): not able to generate these derivatives
sensitivity of gliomas ([2]; gliomas): particularly sensitive
activity against human tumor xenografts [2]: has activity
generation of CCI-779 derivatives by the enzyme (CYP450 2C19): not able to generate these derivatives
tumor growth (human pancreatic tumors): inhibited
activity in orthotopic glioma model (orthotopic glioma model): active
generation of CCI-779 derivatives by the enzyme (CYP450 2A6): not able to generate these derivatives
generation of CCI-779 derivatives by the enzyme (CYP450 2C8): not able to generate these derivatives
tumor growth (breast cancer lines): inhibited
sensitivity of tumor lines ([3]; CNS cancer, leukemia (T-cell), breast cancer, prostate cancer and melanoma lines): among the most sensitive
inhibition of growth of tumor cells ([3]; in vitro, a number of histologically diverse tumor cells): inhibit the growth
cell cycle effect ([3]; in vitro): arrested cells in the G1 phase
generation of CCI-779 derivatives by the enzyme (CYP3A4): the only member of this family of enzymes to specifically generate CCI-779 derivatives
